Data taken from ChEMBL document CHEMBL2413072, “Synthesis and in vitro anticancer studies of novel C-2 arylidene congeners of lantadenes” (2013).

How the values were obtained:
Format in all cases: functional
[1] = test system: K562; assay: Growth inhibition of human K562 cells assessed as cell growth at 10 uM by sulforhodamine B assay; conditions: read-out: Activity
[2] = test system: MDA-MB-468; assay: Growth inhibition of human MDA-MB-468 cells assessed as growth inhibition at 10 uM by sulforhodamine B assay; conditions: read-out: GI
[3] = test system: BT-549; assay: Growth inhibition of human BT549 cells assessed as growth inhibition at 10 uM by sulforhodamine B assay; conditions: read-out: GI
[4] = test system: DU-145; assay: Growth inhibition of human DU145 cells assessed as growth inhibition at 10 uM by sulforhodamine B assay; conditions: read-out: GI
[5] = test system: UO-31; assay: Growth inhibition of human UO31 cells assessed as growth inhibition at 10 uM by sulforhodamine B assay; conditions: read-out: GI
[6] = test system: SN12C; assay: Growth inhibition of human SN12C cells assessed as growth inhibition at 10 uM by sulforhodamine B assay; conditions: read-out: GI
[7] = test system: RXF 393; assay: Growth inhibition of human RXF393 cells assessed as growth inhibition at 10 uM by sulforhodamine B assay; conditions: read-out: GI
[8] = test system: CAKI-1; assay: Growth inhibition of human CAKI-1 cells assessed as growth inhibition at 10 uM by sulforhodamine B assay; conditions: read-out: GI
[9] = test system: A498; assay: Growth inhibition of human A498 cells assessed as growth inhibition at 10 uM by sulforhodamine B assay; conditions: read-out: GI
[10] = test system: CCRF-CEM; assay: Growth inhibition of human CCRF-CEM cells assessed as cell growth at 10 uM by sulforhodamine B assay; conditions: read-out: Activity
[11] = test system: OVCAR-3; assay: Growth inhibition of human OVCAR3 cells assessed as growth inhibition at 10 uM by sulforhodamine B assay; conditions: read-out: GI
[12] = test system: UACC-62; assay: Growth inhibition of human UACC62 cells assessed as growth inhibition at 10 uM by sulforhodamine B assay; conditions: read-out: GI
[13] = test system: SK-MEL-5; assay: Growth inhibition of human SK-MEL-5 cells assessed as growth inhibition at 10 uM by sulforhodamine B assay; conditions: read-out: GI
[14] = test system: MDA-MB-435; assay: Growth inhibition of human MDA-MB-435 cells assessed as growth inhibition at 10 uM by sulforhodamine B assay; conditions: read-out: GI
[15] = test system: M14; assay: Growth inhibition of human M14 cells assessed as growth inhibition at 10 uM by sulforhodamine B assay; conditions: read-out: GI
[16] = test system: Malme-3M; assay: Growth inhibition of human MALME-3M cells assessed as growth inhibition at 10 uM by sulforhodamine B assay; conditions: read-out: GI
[17] = test system: U-251; assay: Growth inhibition of human U251 cells assessed as growth inhibition at 10 uM by sulforhodamine B assay; conditions: read-out: GI
[18] = test system: SNB-19; assay: Growth inhibition of human SNB19 cells assessed as growth inhibition at 10 uM by sulforhodamine B assay; conditions: read-out: GI
[19] = test system: SF-539; assay: Growth inhibition of human SF539 cells assessed as growth inhibition at 10 uM by sulforhodamine B assay; conditions: read-out: GI
[20] = test system: SF-268; assay: Growth inhibition of human SF268 cells assessed as growth inhibition at 10 uM by sulforhodamine B assay; conditions: read-out: GI
[21] = test system: KM12; assay: Growth inhibition of human KM12 cells assessed as growth inhibition at 10 uM by sulforhodamine B assay; conditions: read-out: GI
[22] = test system: HCT-15; assay: Growth inhibition of human HCT15 cells assessed as growth inhibition at 10 uM by sulforhodamine B assay; conditions: read-out: GI
[23] = test system: NCI-H460; assay: Growth inhibition of human NCI-H460 cells assessed as growth inhibition at 10 uM by sulforhodamine B assay; conditions: read-out: GI
[24] = test system: NCI-H322M; assay: Growth inhibition of human NCI-H322M cells assessed as growth inhibition at 10 uM by sulforhodamine B assay; conditions: read-out: GI
[25] = test system: RPMI-8226; assay: Growth inhibition of human RPMI8226 cells assessed as growth inhibition at 10 uM by sulforhodamine B assay; conditions: read-out: GI
[26] = test system: K562; assay: Growth inhibition of human K562 cells assessed as growth inhibition at 10 uM by sulforhodamine B assay; conditions: read-out: GI
[27] = test system: HL-60(TB); assay: Growth inhibition of human HL-60(TB) cells assessed as growth inhibition at 10 uM by sulforhodamine B assay; conditions: read-out: GI
[28] = test system: BT-549; assay: Growth inhibition of human BT549 cells assessed as cell growth at 10 uM by sulforhodamine B assay; conditions: read-out: Activity
[29] = Growth inhibition of human Hs 578T cells assessed as cell growth at 10 uM by sulforhodamine B assay; conditions: read-out: Activity
[30] = test system: MCF7; assay: Growth inhibition of human MCF7 cells assessed as cell growth at 10 uM by sulforhodamine B assay; conditions: read-out: Activity
[31] = test system: PC-3; assay: Growth inhibition of human PC3 cells assessed as cell growth at 10 uM by sulforhodamine B assay; conditions: read-out: Activity
[32] = test system: UO-31; assay: Growth inhibition of human UO31 cells assessed as cell growth at 10 uM by sulforhodamine B assay; conditions: read-out: Activity
[33] = test system: SN12C; assay: Growth inhibition of human SN12C cells assessed as cell growth at 10 uM by sulforhodamine B assay; conditions: read-out: Activity
[34] = test system: CAKI-1; assay: Growth inhibition of human CAKI-1 cells assessed as cell growth at 10 uM by sulforhodamine B assay; conditions: read-out: Activity
[35] = test system: OVCAR-5; assay: Growth inhibition of human OVCAR5 cells assessed as cell growth at 10 uM by sulforhodamine B assay; conditions: read-out: Activity
[36] = test system: OVCAR-4; assay: Growth inhibition of human OVCAR4 cells assessed as cell growth at 10 uM by sulforhodamine B assay; conditions: read-out: Activity
[37] = test system: UACC-257; assay: Growth inhibition of human UACC257 cells assessed as cell growth at 10 uM by sulforhodamine B assay; conditions: read-out: Activity
[38] = test system: SK-MEL-2; assay: Growth inhibition of human SK-MEL-2 cells assessed as cell growth at 10 uM by sulforhodamine B assay; conditions: read-out: Activity
[39] = test system: M14; assay: Growth inhibition of human M14 cells assessed as cell growth at 10 uM by sulforhodamine B assay; conditions: read-out: Activity
[40] = test system: Malme-3M; assay: Growth inhibition of human MALME-3M cells assessed as cell growth at 10 uM by sulforhodamine B assay; conditions: read-out: Activity
[41] = test system: SF-539; assay: Growth inhibition of human SF539 cells assessed as cell growth at 10 uM by sulforhodamine B assay; conditions: read-out: Activity
[42] = test system: SF-295; assay: Growth inhibition of human SF295 cells assessed as cell growth at 10 uM by sulforhodamine B assay; conditions: read-out: Activity
[43] = test system: SF-268; assay: Growth inhibition of human SF268 cells assessed as cell growth at 10 uM by sulforhodamine B assay; conditions: read-out: Activity
[44] = test system: SW-620; assay: Growth inhibition of human SW620 cells assessed as cell growth at 10 uM by sulforhodamine B assay; conditions: read-out: Activity
[45] = test system: KM12; assay: Growth inhibition of human KM12 cells assessed as cell growth at 10 uM by sulforhodamine B assay; conditions: read-out: Activity
[46] = test system: HCT-116; assay: Growth inhibition of human HCT116 cells assessed as cell growth at 10 uM by sulforhodamine B assay; conditions: read-out: Activity
[47] = Growth inhibition of human HCC2998 cells assessed as cell growth at 10 uM by sulforhodamine B assay; conditions: HCC 2998, read-out: Activity
[48] = test system: NCI-H460; assay: Growth inhibition of human NCI-H460 cells assessed as cell growth at 10 uM by sulforhodamine B assay; conditions: read-out: Activity
[49] = test system: RPMI-8226; assay: Growth inhibition of human RPMI8226 cells assessed as cell growth at 10 uM by sulforhodamine B assay; conditions: read-out: Activity

SMILES: CC(C)=CC(=O)O[C@@H]1CC(C)(C)C[C@H]2C3=CC[C@@H]4[C@@]5(C)CC[C@H](O)C(C)(C)[C@@H]5CC[C@@]4(C)[C@]3(C)CC[C@@]12C(=O)O [Reduced Lantadene B]
- growth at 10 µM [1]: 45.2%
- inhibition of growth at 10 µM [2]: < 10%
- inhibition of growth at 10 µM [3]: 21.9%
- inhibition of growth at 10 µM [4]: 13.4%
- inhibition of growth at 10 µM [5]: 39.1%
- inhibition of growth at 10 µM [6]: 49.1%
- inhibition of growth at 10 µM [7]: 14.8%
- inhibition of growth at 10 µM [8]: 64.4%
- inhibition of growth at 10 µM [9]: < 10%
- growth at 10 µM [10]: 27.4%
- inhibition of growth at 10 µM [11]: 26.1%
- inhibition of growth at 10 µM [12]: 32.8%
- inhibition of growth at 10 µM [13]: 38.5%
- inhibition of growth at 10 µM [14]: < 10%
- inhibition of growth at 10 µM [15]: < 10%
- inhibition of growth at 10 µM [16]: < 10%
- inhibition of growth at 10 µM [17]: 60.8%
- inhibition of growth at 10 µM [18]: 14.4%
- inhibition of growth at 10 µM [19]: 45.3%
- inhibition of growth at 10 µM [20]: < 10%
- inhibition of growth at 10 µM [21]: 65.7%
- inhibition of growth at 10 µM [22]: 74.9%
- inhibition of growth at 10 µM [23]: 49.7%
- inhibition of growth at 10 µM [24]: 40.3%
- inhibition of growth at 10 µM [25]: 76.3%
- inhibition of growth at 10 µM [26]: 54.8%
- inhibition of growth at 10 µM [27]: 86%
- growth at 10 µM [28]: 78.1%
- growth at 10 µM [29]: 85.5%
- growth at 10 µM [30]: 62.7%
- growth at 10 µM [31]: 45.4%
- growth at 10 µM [32]: 60.9%
- growth at 10 µM [33]: 50.9%
- growth at 10 µM [34]: 35.6%
- growth at 10 µM [35]: 119%
- growth at 10 µM [36]: 70.7%
- growth at 10 µM [37]: 92.7%
- growth at 10 µM [38]: 86.5%
- growth at 10 µM [39]: 94%
- growth at 10 µM [40]: 96.7%
- growth at 10 µM [41]: 54.7%
- growth at 10 µM [42]: 44.6%
- growth at 10 µM [43]: 92.2%
- growth at 10 µM [44]: 66.9%
- growth at 10 µM [45]: 34.3%
- growth at 10 µM [46]: 27.2%
- growth at 10 µM [47]: 62%
- growth at 10 µM [48]: 50.3%
- growth at 10 µM [49]: 23.7%
